Measured values as given in patent US20220168295A1, “RIMEGEPANT FOR CGRP RELATED DISORDERS” (Biohaven Pharmaceutical Ireland DAC, priority 2018, published 2022).

Experiments:
[1] = tested on: subjects with Acute Migraines; test: Study 302 (BHV3000-302) Phase 3 placebo-controlled trial, rimegepant 75 mg tablet, acute treatment of migraine: efficacy and safety; format: in vivo, human
Method: Clinical Trial—BHV3000-302: Phase 3: Double-Blind, Randomized, Placebo-Controlled, Safety and Efficacy Trial of BHV-3000 (Rimegepant) for the Acute Treatment of Migraine (ClinicalTrials.gov Identifier: NCT03237845) A phase 3 clinical study was conducted with 1503 participants, as follows. The purpose of this study is to compare the efficacy of BHV-3000 (rimegepant) versus placebo in subjects with Acute Migraines • Study Type: Interventional (Clinical Trial) • Actual Enrollment: 1503 participants • Allocation: Randomized • Intervention Model: Parallel Assignment • Intervention Model Description: Double-blind to Sponsor, Investigator and Subject • Masking: Triple (Participant, Care Provider, Investigator) • Masking Description: Double-blind to Sponsor, Investigator and Subject • Primary Purpose: Treatment • Official Title: BHV3000-302: Phase 3: Double-Blind, Randomized, Placebo-Controlled, Safety and Efficacy Trial of BHV-3000 (Rimegepant) for the Acute Treatment of Migraine • Actual Study Start Date: Jul. 26, 2017 • Primary Completion Date: Jan. 25, 2018 • Study Completion Date: Jan. 31, 2018 [table] • 1. Pain Freedom of rimegepant (75 mg tablet) compared with placebo in the acute treatment of migraine will be measured using the number of evaluable subjects that report no pain at 2 hours post-dose. [Time Frame: Two hours post dose] • Pain will be measured on a 4 point Likert scale (0=none, 1=mild, 2=moderate, 3=severe) • 2. Freedom from the most bothersome symptom (MBS) of rimegepant (75 mg tablet) compared with placebo will be measured using the number of evaluable subjects that report the absence of their MBS at 2 hours post-dose. [Time Frame: Two hours post dose] • The MBS (nausea, phonophobia or photophobia) will measured using a binary scale (0=absent, 1=present). • 1. […] [Time Frame: 2 hours −24 hours post-dose] • Sustained Pain Freedom as measured by a 4 point numeric rating scale (None, Mild, Moderate, Severe) • 2. Rimegepant (75 mg tablet) compared to placebo by tabulating the number of subjects that report the absence of photophobia at 2 hours post-dose in the subset of subjects that reported the presence of photophobia at headache baseline. [Time Frame: 2 hours post-dose] • Freedom from Photophobia • 3. Rimegepant (75 mg tablet) compared to placebo by tabulating the number of subjects that report the absence of phonophobia at 2 hours post-dose in the subset of subjects that reported the presence of phonophobia at headache baseline. [Time Frame: 2 hours post-dose] • Freedom from Phonophobia • 4. To measure rimegepant (75 mg tablet) compared to placebo on Pain Relief, at 2 hours post-dose, that report a pain level of moderate or severe at baseline and then report a pain level of none or mild. [Time Frame: 2 hours post-dose] • Pain Relief as measured by a 4 point numeric rating scale (None, Mild, Moderate, Severe) • 5. Freedom from Nausea will by tabulating the number of subjects that report the absence of nausea at 2 hours post-dose in the subset of subjects that reported the presence of nausea at headache baseline. [Time Frame: 2 hours post-dose] • Freedom from Nausea • 6. To measure rimegepant (75 mg tablet) compared to placebo on the probability of requiring rescue medication will be assessed using the number of subjects that take rescue medication within […] administration of study medication (BHV3000 or placebo). [Time Frame: up to 24 hours post-dose] • Requiring Rescue Medication • 7. […] [Time Frame: 2 hours-48 hours post-dose] • Sustained Pain Freedom as measured by a 4 point numeric rating scale (None, Mild, Moderate, Severe) • 8. […] [Time Frame: 2 hours-24 hours post-dose] • Sustained Pain Relief as measured by a 4 point numeric rating scale (None, Mild, Moderate, Severe) • 9. […] [Time Frame: 2 hours-48 hours post-dose] • Sustained Pain Relief as measured by a 4 point numeric rating scale (None, Mild, Moderate, Severe) • 10. […]

patients with migraine = test: Study 201 (BHV3000-201) open label long-term safety study, rimegepant 75 mg oral tablet, acute treatment of migraine; format: in vivo, human; details: for >= 20.0% decrease in migraines (headache days) per month, subjects n (%) / >= 25.0% decrease in migraines (headache days) per month, subjects n (%) / >= 30.0% decrease in migraines (headache days) per month, subjects n (%) / >= 35.0% decrease in migraines (headache days) per month, subjects n (%) / >= 40.0% decrease in migraines (headache days) per month, subjects n (%) / >= 45.0% decrease in migraines (headache days) per month, subjects n (%) / >= 50.0% decrease in migraines (headache days) per month, subjects n (%): Study 201, Overall, n 1731
Method: Clinical Trial-BHV3000-201: Open Label Safety Study in Acute Treatment of Migraine (ClinicalTrials.gov Identifier: NCT 03266588) A phase 2/3 clinical study is conducted with about 2000 participants, as follows. The purpose of this study is to evaluate safety and tolerability of BHV3000 (rimegepant). • Study Type: Interventional (Clinical Trial) • Estimated Enrollment: 2000 participants • Intervention Model: Single Group Assignment • Masking: None (Open Label) • Primary Purpose: Treatment • Official Title: A Multicenter, Open Label Long-Term Safety Study of BHV3000 in the Acute Treatment of Migraine • Actual Study Start Date: Aug. 30, 2017 • Estimated Primary Completion Date: July 2019 • Estimated Study Completion Date: July 2019 [table] 1. To assess the safety and tolerability of rimegepant (BHV-3000) by measuring the frequency and severity of adverse events and discontinuations due to adverse events [Time Frame: 52 weeks] Number of subjects with treatment-emergent adverse events as assessed through laboratory tests, ECGs, physical exam findings (safety and tolerability) 1. ALT or […] with total bilirubin >2×ULN [Time Frame: 52 weeks] elevated liver function tests 2. hepatic related adverse events and hepatic related adverse events that lead to discontinuation [Time Frame: 52 weeks] adverse events related to liver

N[C@@H]1c2cccnc2[C@H](OC(=O)N2CCC(n3c(=O)[nH]c4ncccc43)CC2)CC[C@H]1c1cccc(F)c1F [Rimegepant, [(5S,6S,9R)-5-amino-6-(2,3-difluorophenyl)-6,7,8,9-tetrahydro-5H-cyclohepta[b]pyridin-9-yl] 4-(2-oxo-3H-imidazo[4,5-b]pyridin-1-yl)piperidine-1-carboxylate]
SAEs related to the study drug [1]: No SAEs were determined to be related to the study drug
Transaminase level greater than 3 times ULN, subjects [1]: No subject
Adverse event urinary tract infection, incidence ([1]; 8/543): 1.5%
Adverse event nausea, incidence ([1]; 10/543): 1.8%
Serum ALT or AST levels greater than ULN, subjects ([1]; 13/543): 2.4%
Proportion of patients achieving normal function at 2 hours (functional disability) versus placebo ([1]; P<0.0001): greater proportion
Serious AEs (SAEs), number of subjects ([1]; back pain): 1 subject
>= 20.0% decrease in migraines (headache days) per month, subjects n (%) (patients with migraine): 683 (39.5%) n (%)
>= 25.0% decrease in migraines (headache days) per month, subjects n (%) (patients with migraine): 602 (34.8%) n (%)
>= 30.0% decrease in migraines (headache days) per month, subjects n (%) (patients with migraine): 523 (30.2%) n (%)
>= 35.0% decrease in migraines (headache days) per month, subjects n (%) (patients with migraine): 442 (25.5%) n (%)
>= 40.0% decrease in migraines (headache days) per month, subjects n (%) (patients with migraine): 362 (20.9%) n (%)
>= 45.0% decrease in migraines (headache days) per month, subjects n (%) (patients with migraine): 287 (16.6%) n (%)
>= 50.0% decrease in migraines (headache days) per month, subjects n (%) (patients with migraine): 226 (13.1%) n (%)
>= 20.0% decrease in migraines (headache days) per month, subjects n (%) (patients with migraine; listed as BHV-3000): 683 (39.5) n (%)
>= 25.0% decrease in migraines (headache days) per month, subjects n (%) (patients with migraine; listed as BHV-3000): 602 (34.8) n (%)
>= 30.0% decrease in migraines (headache days) per month, subjects n (%) (patients with migraine; listed as BHV-3000): 523 (30.2) n (%)
>= 35.0% decrease in migraines (headache days) per month, subjects n (%) (patients with migraine; listed as BHV-3000): 442 (25.5) n (%)
>= 40.0% decrease in migraines (headache days) per month, subjects n (%) (patients with migraine; listed as BHV-3000): 362 (20.9) n (%)
>= 45.0% decrease in migraines (headache days) per month, subjects n (%) (patients with migraine; listed as BHV-3000): 287 (16.6) n (%)
>= 50.0% decrease in migraines (headache days) per month, subjects n (%) (patients with migraine; listed as BHV-3000): 226 (13.1) n (%)
Incidence of serum ALT or AST >3xULN (patients with migraine; Study 201 interim analysis, 75 mg up to once daily, long-term): 1.0%
Liver safety signal (patients with migraine; Study 201 interim analysis, including near-daily dosing subset): no liver safety signal detected
Liver cases assessed as probably related to study drug (patients with migraine; Study 201 interim analysis, independent liver panel): no liver cases
